Drawing on US6498251B1, “Tetrahydrobenzindole derivatives” (Meiji Seika Kaisha, Ltd., priority 1997, dated 2002), this text covers Ki and 5-HT2/5-HT7 for eleven compounds.

Each structure is given as a SMILES string. Where only a bound is given, the exact number is not on record here.

For one experiment, the target named is T1, 5-HT2 receptor (Rattus norvegicus, UniProt P14842).
T1 construct: Rat cerebral cortex was homogenized; from tissue; host or cells: rat cerebral cortex, P2 membrane fraction
T1 sequence (P14842 whole entry): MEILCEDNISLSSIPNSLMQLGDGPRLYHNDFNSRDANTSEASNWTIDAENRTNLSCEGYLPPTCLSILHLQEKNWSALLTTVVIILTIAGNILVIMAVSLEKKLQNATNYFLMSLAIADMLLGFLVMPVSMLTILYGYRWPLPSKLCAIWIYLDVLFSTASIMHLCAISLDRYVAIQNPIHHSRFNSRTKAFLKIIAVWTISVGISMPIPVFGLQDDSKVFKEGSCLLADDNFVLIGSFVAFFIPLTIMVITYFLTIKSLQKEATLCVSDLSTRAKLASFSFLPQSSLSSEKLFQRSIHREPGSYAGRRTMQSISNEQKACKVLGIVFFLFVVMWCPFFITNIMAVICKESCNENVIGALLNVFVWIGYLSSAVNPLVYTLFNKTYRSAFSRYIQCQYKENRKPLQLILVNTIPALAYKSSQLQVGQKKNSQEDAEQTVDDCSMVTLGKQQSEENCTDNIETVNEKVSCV
Nature of the experiment: Binding affinity for 5-HT2 receptor ([3H]ketanserin binding, rat cerebral cortex P2 fraction). The note with it: [3H]ketanserin 1 nM, 37° C. 15 minutes, Ki calculated from IC50. The procedure:
Test Example 2 Binding Affinity for 5-HT2 Rector
Rat cerebral cortex was homogenized in 10 volumes of 0.32 M sucrose solution and centrifuged for 10 minutes at 900×g, and the resulting supernatant fluid was again centrifuged for 20 minutes at 11,500×g. The thus obtained precipitate was re-suspended in 50 mM Tris-HCl (pH 7.4) buffer and centrifuged for 20 minutes at 39,900×g, and the thus obtained precipitate was used as P2 fraction.
The P2 fraction was incubated at 37° C. for 15 minutes in 50 mM Tris-HCl (pH 7.4) buffer containing 1 nM of [^3H]ketanserin and each of the compounds of the invention and then filtered after the reaction using Whatman GF/B glass filter. The radioactivity on the filter was measured using a liquid scintillation counter. Non-specific binding was determined by 10 μM ketanserin, and the specific binding was calculated based on the difference therefrom. The IC50 value was calculated from the inhibition curve of each compound, and the binding inhibition constant Ki was calculated from the value.

For experiment [1], the target named is T2, human serotonin 5-HT7 receptor subtype (Homo sapiens, UniProt P34969).
T2 construct: expressed in transfected cells
T2 sequence (P34969 whole entry): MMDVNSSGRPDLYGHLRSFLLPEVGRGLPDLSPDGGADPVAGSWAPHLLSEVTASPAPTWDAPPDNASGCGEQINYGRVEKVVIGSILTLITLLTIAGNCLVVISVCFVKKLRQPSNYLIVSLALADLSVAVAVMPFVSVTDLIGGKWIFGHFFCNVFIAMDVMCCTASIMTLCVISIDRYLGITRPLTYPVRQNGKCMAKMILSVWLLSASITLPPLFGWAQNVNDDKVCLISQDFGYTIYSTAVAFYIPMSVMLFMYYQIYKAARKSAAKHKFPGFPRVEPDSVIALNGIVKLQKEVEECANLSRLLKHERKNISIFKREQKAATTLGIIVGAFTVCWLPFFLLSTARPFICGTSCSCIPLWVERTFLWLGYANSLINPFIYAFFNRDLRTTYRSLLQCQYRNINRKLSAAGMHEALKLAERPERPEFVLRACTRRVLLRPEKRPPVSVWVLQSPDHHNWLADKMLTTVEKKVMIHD
Nature of the experiment: Binding affinity for 5-HT7 receptor ([3H]-5CT binding test). The note with it: for Ki: [3H]-5CT 1 nM, membrane fraction of cells expressing human 5-HT7, 37° C. 30 minutes, Ki calculated from IC50; for 5-HT2/5-HT7: ratio of Ki of 5-HT2 to Ki of 5-HT7 (selectivity). The procedure: Test Example 1 Binding Affinity for 5-HT7 Rector
Cultured cells capable of expressing human serotonin 5-HT7 receptor subtype were harvested in an assay buffer solution (50 mM Tris-HCl containing 10 mM MgCl2and 0.5 mM EDTA, pH 7.4) and homogenized with a Potter tripe homogenizer, and then the membrane fraction was centrifuged for 20 minutes at 39,000 g and at 4° C. The thus obtained pellet was re-suspended in 1 ml, per cells per one culture dish of 10 cm in diameter, of the assay buffer solution and homogenized again.
The binding test was carried out using 1 nM in final concentration of [^3H]-5CT (carboxamide tryptamine) and from 1 to 1,000 nM of each substance to be tested (the compound (1) of the invention among Synthesis Examples), and adjusting the final assay volume to 300 μl by adding 100 μl of the membrane fraction suspension and then incubating the reaction system at 37° C. for 30 minutes. The incubation was terminated by quickly filtering on a GF/B filter, subsequently carrying out washing with 6 ml of cold 50 mM Tris-HCl (pH 7.4). The radioactivity was measured using a liquid scintillation counter. Non-specific binding was determined by 10 μM metergoline, and the specific binding was calculated based on the difference therefrom. The IC50 value was calculated from the inhibition curve of each compound, and the binding inhibition constant Ki was calculated from the value.

On to `O=C1Nc2cccc3c2C1(CCCCN1CCc2sccc2C1)CCC3` (stereo not drawn) [Compd. of Syn. Ex. 17c, 2a-(4-(4,5,6,7-Tetrahydro-thieno[3,2-c]pyridin-5-yl)butyl)-2a,3,4,5-tetrahydro-1H-benz[cd]indol-2-one], for which the Ki on 5-HT2 receptor is more than 1000 nM; in experiment [1], 0.9 nM. Also, in experiment [1], the 5-HT2/5-HT7 is reported as more than 1100.

On to `CC(c1ccccc1)N1CCN(CCCCC23CCCc4cccc(c42)NC3=O)CC1` (stereo not drawn) [Compd. of Syn. Ex. 2e, 2a-(4-(4-(1-Phenyl-ethyl)-piperazin-1-yl)butyl)-2a,3,4,5-tetrahydro-1H-benz[cd]indol-2-one], for which the Ki at 5-HT2 receptor is 456 nM. Further, in experiment [1], the Ki was 30 nM and the 5-HT2/5-HT7 is recorded as 15.

As to `O=C1Nc2cccc3c2C1(CCCCN1CCN2c4ccccc4[S+]([O-])CC2C1)CCC3` (stereo not drawn) [Compd. of Syn. Ex. 10b, 2a-[4-(1,2,3,4,4a,5-Hexahydro-6-oxo-6-λ^4-pyrazino[2,1-c]-1,4-benzthiazin-3-yl)-butyl]-2a,3,4,5-tetrahydro-1H-benz[cd]indol-2-one], the Ki on 5-HT2 receptor is more than 1000 nM. In experiment [1], the Ki is 7 nM and the 5-HT2/5-HT7 is more than 143.

With `O=C1Nc2cccc3c2C1(CCCCN1CCN(C2CCCc4cnccc42)CC1)CCC3` (stereo not drawn) [Compd. of Syn. Ex. 37d, 2a-(4-(4-(5,6,7,8-Tetrahydroisoquinolin-5-yl)-piperazin-1-yl)butyl)-2a,3,4,5-tetrahydro-1H-benz[d]indol-2-one], the inhibition constant (Ki) on 5-HT2 receptor was 882 nM. Also, in experiment [1], the inhibitory constant (Ki) is 8.8 nM and the 5-HT2/5-HT7 is listed as 100.

For the compound `COCn1c2c(c3ccccc31)CCN(CCCCC13CCCc4cccc(c41)NC3=O)C2` (stereo not drawn) [Compd. of Syn. Ex. 21a, 2a-[4-(9-Methoxymethyl-2,3,4,9-tetrahydro-1H-pyrido[3,4-b]indol-2-yl)-butyl]-2a,3,4,5-tetrahydro-1H-benz[cd]indol-2-one], the Ki on 5-HT2 receptor was 524 nM. For the same compound, in experiment [1], the inhibition constant (Ki) is 13 nM and the 5-HT2/5-HT7 came to 40.

Turning to `O=C1Nc2cccc3c2C1(CCCCN1CCN2c4ccccc4OCC2C1)CCC3` (stereo not drawn) [Compd. of Syn. Ex. 1b, 2a-[4-(1,2,3,4,4a,5-Hexahydropyrazino[2,1-c]-1,4-benzoxazin-3-yl)-butyl]-2a,3,4,5-tetrahydro-1H-benz[cd]indol-2-one], the Ki at 5-HT2 receptor is 151 nM. For the same compound, in experiment [1], the inhibitory constant (Ki) is 9 nM and the 5-HT2/5-HT7 amounted to 17.

Take `O=C1Nc2cccc3c2C1(CCCCN1CCN(C2CCCc4ccccc42)CC1)CCC3` (stereo not drawn) [Compd. of Syn. Ex. 10d, 2a-(4-(4-(1,2,3,4-Tetrahydronaphthalen-1-yl)-piperazin-1-yl)butyl)-2a,3,4,5-tetrahydro-1H-benz[cd]indol-2-one]: the Ki on 5-HT2 receptor is more than 1000 nM. Besides, in experiment [1], the Ki is 9.8 nM and the 5-HT2/5-HT7 was more than 100.

For the compound `Cl.O=C1Nc2ccccc2N2CCN(CCCCC34CCCc5cccc(c53)NC4=O)CC12` (stereo not drawn) [Compd. of Syn. Ex. 13b, 2a-[4-(2,3,4,4a-Tetrahydro-1H-pyrazino[1,2-a]quinoxalin-5(6H)-one-3-yl)-butyl]-2a,3,4,5-tetrahydro-1H-benz[cd]indol-2-one Hydrochloride], on 5-HT2 receptor, the inhibition constant (Ki) is 385 nM. In experiment [1], the Ki is 8 nM and the 5-HT2/5-HT7 is listed as 48.

For the compound `O=C1Nc2cccc3c2C1(CCCCN1CCc2c([nH]c4ccccc24)C1)CCC3` (stereo not drawn) [Compd. of Syn. Ex. 1a, 2a-[4-(2,3,4,9-Tetrahydro-1H-pyrido[3,4-b]indol-2-yl)-butyl]-2a,3,4,5-tetrahydro-1H-benz[cd]indol-2-one], the Ki on 5-HT2 receptor was 227 nM. Moreover, in experiment [1], the inhibition constant (Ki) is 7 nM and the 5-HT2/5-HT7 stood at 33.

`CN1C(=O)C2(CCCCN3CCc4ccccc4C3)CCCc3cccc1c32` (stereo not drawn) [Compd. of Syn. Ex. 14c, 2a-(4-(1,2,3,4-Tetrahydroisoquinolin-2-yl)butyl)-1-methyl-2a,3,4,5-tetrahydro-1H-benz[cd]indol-2-one]: the Ki at 5-HT2 receptor is more than 1000 nM. In experiment [1], the Ki was 1.9 nM and the 5-HT2/5-HT7 is recorded as more than 530.

Turning to `COC(=O)n1c2c(c3ccccc31)CCN(CCCCC13CCCc4cccc(c41)NC3=O)C2` (stereo not drawn) [Compd. of Syn. Ex. 17a, 2a-[4-(9-Methoxycarbonyl-2,3,4,9-tetrahydro-1H-pyrido[3,4-b]indol-2-yl)-butyl]-2a,3,4,5-tetrahydro-1H-benz[cd]indol-2-one], the Ki on 5-HT2 receptor was 807 nM. Moreover, in experiment [1], the Ki is 9 nM and the 5-HT2/5-HT7 turned out to be 90.
